Experimental data from PubChem BioAssay (NCI).
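Values below derive from 48-hour exposures of cells grown in 96-well plates, with endpoints linearly interpolated between the two concentrations bracketing the appropriate inhibition level. GI50 = concentration required for 50% inhibition of growth. TGI denotes the concentration required for complete inhibition of growth.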

What was measured:
Test in all cases: NCI-60 cell line screen, 48 h
SNB-19 CNS = tested on: SNB-19 CNS
HT29 colon = tested on: HT29 colon
A549 NSCLC = tested on: A549 NSCLC
U251 CNS = tested on: U251 CNS
OVCAR-4 ovarian = tested on: OVCAR-4 ovarian
MOLT-4 leukemia = tested on: MOLT-4 leukemia
UACC-257 melanoma = tested on: UACC-257 melanoma
MDA-MB-231 breast = tested on: MDA-MB-231 breast
HCC-2998 colon = tested on: HCC-2998 colon
SK-MEL-28 melanoma = tested on: SK-MEL-28 melanoma
MDA-N = tested on: MDA-N
MALME-3M melanoma = tested on: MALME-3M melanoma
SN12C renal = tested on: SN12C renal
MCF7 breast = tested on: MCF7 breast
KM12 colon = tested on: KM12 colon
DU-145 prostate = tested on: DU-145 prostate
LOX IMVI melanoma = tested on: LOX IMVI melanoma
EKVX NSCLC = tested on: EKVX NSCLC
NCI-H226 lung = tested on: NCI-H226 lung
PC-3 prostate = tested on: PC-3 prostate
ACHN renal = tested on: ACHN renal
TK-10 renal = tested on: TK-10 renal
HL-60(TB) leukemia = tested on: HL-60(TB) leukemia
HCT-15 colon = tested on: HCT-15 colon
RXF 393 renal = tested on: RXF 393 renal
OVCAR-3 ovarian = tested on: OVCAR-3 ovarian
SK-OV-3 ovarian = tested on: SK-OV-3 ovarian
SF-295 CNS = tested on: SF-295 CNS
UO-31 renal = tested on: UO-31 renal
SK-MEL-2 melanoma = tested on: SK-MEL-2 melanoma
SW-620 colon = tested on: SW-620 colon
HCT-116 colon = tested on: HCT-116 colon
NCI-H23 lung = tested on: NCI-H23 lung
COLO 205 colon = tested on: COLO 205 colon
UACC-62 melanoma = tested on: UACC-62 melanoma
T-47D breast = tested on: T-47D breast
RPMI-8226 leukemia = tested on: RPMI-8226 leukemia
SF-539 CNS = tested on: SF-539 CNS
SNB-75 CNS = tested on: SNB-75 CNS
IGROV1 ovarian = tested on: IGROV1 ovarian
HOP-92 NSCLC = tested on: HOP-92 NSCLC
786-0 renal = tested on: 786-0 renal
HOP-62 NSCLC = tested on: HOP-62 NSCLC
CCRF-CEM leukemia = tested on: CCRF-CEM leukemia
A498 renal = tested on: A498 renal
OVCAR-8 ovarian = tested on: OVCAR-8 ovarian
K-562 leukemia = tested on: K-562 leukemia
NCI-H522 lung = tested on: NCI-H522 lung
SK-MEL-5 melanoma = tested on: SK-MEL-5 melanoma
CAKI-1 renal = tested on: CAKI-1 renal
M14 melanoma = tested on: M14 melanoma
MDA-MB-435 = tested on: MDA-MB-435
NCI/ADR-RES ovarian = tested on: NCI/ADR-RES ovarian
BT-549 breast = tested on: BT-549 breast
NCI-H460 lung = tested on: NCI-H460 lung
HS 578T breast = tested on: HS 578T breast
SR leukemia = tested on: SR leukemia
OVCAR-5 ovarian = tested on: OVCAR-5 ovarian
SF-268 CNS = tested on: SF-268 CNS

## Nc1nc(Nc2ccccc2)c2[nH]cnc2n1
SNB-19 CNS
  TGI: > 100 µM
HT29 colon
  TGI: > 100 µM
A549 NSCLC
  TGI: > 100 µM
U251 CNS
  TGI: > 100 µM
OVCAR-4 ovarian
  TGI: > 100 µM
MOLT-4 leukemia
  TGI: > 100 µM
UACC-257 melanoma
  TGI: > 100 µM
MDA-MB-231 breast
  TGI: > 100 µM
HCC-2998 colon
  TGI: > 100 µM
SK-MEL-28 melanoma
  TGI: > 100 µM
MDA-N
  TGI: > 100 µM
MALME-3M melanoma
  TGI: > 100 µM
SN12C renal
  TGI: > 100 µM
MCF7 breast
  TGI: > 100 µM
KM12 colon
  TGI: > 100 µM
DU-145 prostate
  TGI: > 100 µM
LOX IMVI melanoma
  TGI: > 100 µM
EKVX NSCLC
  TGI: > 100 µM
NCI-H226 lung
  TGI: > 100 µM
PC-3 prostate
  TGI: > 100 µM
ACHN renal
  TGI: > 100 µM
TK-10 renal
  TGI: > 100 µM
HL-60(TB) leukemia
  TGI: > 100 µM
HCT-15 colon
  TGI: > 100 µM
RXF 393 renal
  TGI: > 100 µM
OVCAR-3 ovarian
  TGI: > 100 µM
SK-OV-3 ovarian
  TGI: > 100 µM
SF-295 CNS
  TGI: > 100 µM
UO-31 renal
  TGI: > 100 µM
SK-MEL-2 melanoma
  TGI: > 100 µM
SW-620 colon
  TGI: > 100 µM
HCT-116 colon
  TGI: > 100 µM
NCI-H23 lung
  TGI: > 100 µM
COLO 205 colon
  TGI: > 100 µM
UACC-62 melanoma
  TGI: > 100 µM
T-47D breast
  TGI: > 100 µM
RPMI-8226 leukemia
  TGI: > 100 µM
SF-539 CNS
  TGI: > 100 µM
SNB-75 CNS
  TGI: > 100 µM
IGROV1 ovarian
  TGI: > 100 µM
HOP-92 NSCLC
  TGI: 92.4 µM
786-0 renal
  TGI: > 100 µM
HOP-62 NSCLC
  TGI: > 100 µM
CCRF-CEM leukemia
  TGI: > 100 µM
A498 renal
  TGI: 81.7 µM
OVCAR-8 ovarian
  TGI: > 100 µM
K-562 leukemia
  TGI: > 100 µM
NCI-H522 lung
  TGI: > 100 µM
SK-MEL-5 melanoma
  TGI: > 100 µM
CAKI-1 renal
  TGI: > 100 µM
M14 melanoma
  TGI: > 100 µM
MDA-MB-435
  TGI: > 100 µM
NCI/ADR-RES ovarian
  TGI: > 100 µM

## CC(C)(O)CNc1nc(Nc2ccnc(C(F)(F)F)c2)nc(-c2cccc(C(F)(F)F)n2)n1
SNB-19 CNS
  GI50: 34.4 µM
  TGI: > 100 µM
BT-549 breast
  GI50: 16.7 µM
  TGI: 39.7 µM
HT29 colon
  GI50: 17.1 µM
  TGI: 41.2 µM
A549 NSCLC
  GI50: 19.5 µM
  TGI: 39.4 µM
NCI-H460 lung
  GI50: 23.8 µM
  TGI: 60.8 µM
U251 CNS
  GI50: 25.9 µM
  TGI: 78.2 µM
OVCAR-4 ovarian
  GI50: 23.9 µM
  TGI: 86.9 µM
MOLT-4 leukemia
  GI50: 13.7 µM
  TGI: 41.8 µM
UACC-257 melanoma
  GI50: 21.7 µM
  TGI: 43.6 µM
MDA-MB-231 breast
  GI50: 19.1 µM
  TGI: 45.6 µM
HCC-2998 colon
  GI50: 20.3 µM
  TGI: 43.7 µM
SK-MEL-28 melanoma
  GI50: 17.8 µM
  TGI: 36.2 µM
MALME-3M melanoma
  GI50: 21.1 µM
  TGI: 43.3 µM
SN12C renal
  GI50: 19.1 µM
  TGI: 54.4 µM
MCF7 breast
  GI50: 18.2 µM
  TGI: 42.5 µM
KM12 colon
  GI50: 16.4 µM
  TGI: 43.7 µM
DU-145 prostate
  GI50: 21.6 µM
  TGI: 67.8 µM
LOX IMVI melanoma
  GI50: 17.3 µM
  TGI: 32.6 µM
EKVX NSCLC
  GI50: 21.4 µM
  TGI: 64.1 µM
NCI-H226 lung
  GI50: 20.8 µM
  TGI: 58.2 µM
PC-3 prostate
  GI50: 27.4 µM
  TGI: > 100 µM
ACHN renal
  GI50: 23.5 µM
  TGI: 66.7 µM
TK-10 renal
  GI50: 26.6 µM
  TGI: 82.4 µM
HL-60(TB) leukemia
  GI50: 21.1 µM
  TGI: 58.2 µM
HCT-15 colon
  GI50: 19.7 µM
  TGI: 79.8 µM
HS 578T breast
  GI50: 27.8 µM
  TGI: 75.9 µM
RXF 393 renal
  GI50: 20.7 µM
  TGI: 48.4 µM
OVCAR-3 ovarian
  GI50: 20.1 µM
  TGI: 52 µM
SK-OV-3 ovarian
  GI50: 26.6 µM
  TGI: 68.3 µM
SF-295 CNS
  GI50: 17.1 µM
  TGI: 35.3 µM
UO-31 renal
  GI50: 19.9 µM
  TGI: 50.4 µM
SW-620 colon
  GI50: 26.7 µM
  TGI: 86.5 µM
HCT-116 colon
  GI50: 17.6 µM
  TGI: 44.5 µM
NCI-H23 lung
  GI50: 18.1 µM
  TGI: 42.8 µM
COLO 205 colon
  GI50: 18.4 µM
  TGI: 38.7 µM
UACC-62 melanoma
  GI50: 16.4 µM
  TGI: 32.6 µM
T-47D breast
  GI50: 17.7 µM
  TGI: 56.7 µM
RPMI-8226 leukemia
  GI50: 18.5 µM
  TGI: 56.1 µM
SF-539 CNS
  GI50: 16.6 µM
  TGI: 42.7 µM
SNB-75 CNS
  GI50: 15.9 µM
  TGI: 42.7 µM
IGROV1 ovarian
  GI50: 28.6 µM
  TGI: 74.5 µM
HOP-92 NSCLC
  GI50: 23.4 µM
  TGI: 74.2 µM
786-0 renal
  GI50: 18.6 µM
  TGI: 78.5 µM
HOP-62 NSCLC
  GI50: 21.4 µM
  TGI: 52.8 µM
SR leukemia
  GI50: 18.3 µM
  TGI: 90.9 µM
OVCAR-5 ovarian
  GI50: 22.5 µM
  TGI: 63 µM
CCRF-CEM leukemia
  GI50: 21.3 µM
  TGI: 73.9 µM
A498 renal
  GI50: 16.1 µM
  TGI: 37.2 µM
OVCAR-8 ovarian
  GI50: 26.3 µM
  TGI: 84.8 µM
K-562 leukemia
  GI50: 29.4 µM
  TGI: > 100 µM
NCI-H522 lung
  GI50: 18.6 µM
  TGI: 49.3 µM
SK-MEL-5 melanoma
  GI50: 13.2 µM
  TGI: 26.3 µM
CAKI-1 renal
  GI50: 29.6 µM
  TGI: > 100 µM
SF-268 CNS
  GI50: 23.1 µM
  TGI: 76.4 µM
M14 melanoma
  GI50: 16.1 µM
  TGI: 34.6 µM
MDA-MB-435
  GI50: 15.8 µM
  TGI: 39.9 µM
NCI/ADR-RES ovarian
  GI50: 17.1 µM
  TGI: 53.8 µM
